Results on two compounds are retold here after patent US20110217394A1, “Iridoid Based Formulations” (priority 2000, published 2011).

The subject of data set [1] is E. coli PQ37. As to the kind of experiment: Anti-genotoxicity test (SOS-chromotest with 4NQO, Example Three). Type of data set: cell-based. The following applies: for reduction in genotoxicity: 250 μg iridoid plus 1.25 μg mL^-1 4NQO; for induction factor of 4NQO plus iridoid compared with vehicle blank: 250 μg mL^-1 iridoid plus 1.25 μg mL^-1 4NQO. How it is done:
The primary DNA damage test was performed again, similar to the method described above. […] Induction factors were calculated in the same manner as described above.

The next data set relates to mammalian cells. The following applies: cited from earlier work.
Data set [2] relates to E. coli PQ37. In words: Primary DNA damage test (SOS-chromotest). It is filed as cell-based. The settings on record: for mean induction factor: 1000 μg mL^-1, less than two indicates absence of genotoxic activity; for induction of SOS repair: all concentrations tested, 7.81-1000 μg mL^-1. How it is done:
The SOS-chromotest in E. coli PQ37 was used to determine the potential for DAA and AA to induce primary DNA damage. This test was carried out according to the previously developed method (Fish et al., 1987). […] E. coli PQ37 was incubated in LB medium in a 96-well plate at 37° C. in the presence of DAA or AA for 2 hours. The DAA and AA concentrations tested were 7.81, 15.6, 31.2, 62.5, 125, 250, 500, and 1000 μg mL^−1. Samples were evaluated in triplicate. Following incubation with the samples, 5-bromo-4-chloro-3-indolyl-β-D-galactopyranoside was added to the wells to detect β-galactosidase enzyme activity, which is induced during SOS repair of damaged DNA. Nitrophenyl phosphate is also added to the wells to measure alkaline phosphatase activity, an indicator of cell viability. The samples were again incubated and the absorbances of the samples, blanks and controls were measured at 410 and 620 nm with a microplate reader. […] The induction factor of each material was calculated by dividing the absorbance of the sample at 620 nm by that of the blank, while also correcting for cell viability. Induction factors less than two indicate an absence of genotoxic activity.

Data set [3] can be described thus: HPLC-PDA quantitation of iridoids (DAA, AA), with method validation, precision and stability assays. The settings on record: fresh noni juice; for Amount detected, Inter-day: inter-day precision and stability assay over 3 consecutive days; for Amount detected, Day 1 / Amount detected, Day 2 / Amount detected, Day 3: intra-day precision and stability assay; for Amount detected, Day 1: n = 3, Day 1; for Amount detected, Day 2: n = 3, Day 2; for Amount detected, Day 3: n = 3, Day 3. The text has this:
Acetonitrile (MeCN), methanol (MeOH), and water (H2O) of HPLC grade were obtained from Sigma-Aldrich (St. Louis, Mo., USA). Formic acid of analytical grade was purchased from Spectrum Chemical Mfg. Corp. (New Brunswick, N.J., USA). The chemical standard deacetylasperulosidic acid (DAA, 1) and asperulosidic acid (AA, 2) were isolated from noni fruits in our laboratory. […] They were accurately weighed and then dissolved in an appropriate volume of MeCN to produce corresponding stock solutions. The working standard solution of 1 and 2 for the calibration curve was prepared by diluting the stock solution with MeOH in seven concentration increments ranging from 0.00174-1.74 and 0.0016-0.80 mg/mL, respectively. All stock and working solutions were maintained at […] in a refrigerator. The calibration curves of standards were plotted after linear regression of the peak areas versus concentrations.
(§1) Tahitian noni fruit puree as used in this example is the mashed whole fruit, excluding seeds and pericarp. The fruits were originally collected from the Tahitian Islands. One gram of the puree was diluted with 5 mL of H2O—MeOH (1:1) and mixed thoroughly. The solution was then filtered through a nylon microfilter (0.45-μm pore size); the solution was collected into a 5 mL volumetric flask for HPLC analysis. Four batches of noni puree were analyzed in the experiments. Voucher specimens of the noni fruit puree are deposited in our lab. To test iridoid stability, a DAA solution of 0.5 mg/mL was prepared with MeOH. This solution was heated in a water-bath at 90° C. for 1 min, cooled to room temperature, and analyzed by HPLC.
Chromatographic separation was performed on a Waters 2690 separations module coupled with 996 PDA detectors, and equipped with an Atlantis C18 column (4.6 mm×250 mm; 5 Waters Corporation, Milford, Mass., USA). The pump was connected to two mobile phases: A; MeCN, and B; 0.1% formic acid in H2O (v/v), and eluted at a flow rate of 0.8 mL/min. The mobile phase was programmed consecutively in linear gradients as follows: 0-5 min, 0% A; and 40 min, 30% A. The PDA detector was monitored in the range of 210-400 nm (235 nm was selected for quantitative analysis). The injection volume was 10 μL for each of the sample solutions. The column temperature was maintained at 25° C. Data collection and integration were performed using Waters Millennium software revision 32.
The limits of detection (LOD) and quantitation (LOQ) were defined as the lowest concentrations of analytes in a sample that can be detected and quantified. These LOD and LOQ limits were determined on the basis of signal-to-noise ratios (S/N) of 3:1 and 10:1, respectively. The working solutions of standards 1 and 2 for LOD and LOQ were prepared by diluting them sequentially. The intra- and inter-day precision assays, as well as stability tests were performed by following the method applied to the sample analysis for 3 consecutive days. Accuracy of the method (recovery) was assessed by the recovery percentage of iridoids 1 and 2 in the spiked samples. The noni fruit puree samples were spiked with standards at 3 different concentrations (equivalent to 50%, 100% and 150% concentration of 1 and 2 in the samples). The recovery percentage was calculated using the ratio of concentration detected (actual) to those spiked (theoretical). Variation was evaluated by the relative standard deviation (RSD) of triplicate injections in the HPLC experiments.
The iridoid content, inclusive of deacetylasperulosidic acid (DAA) and asperulosidic acid (AA), was determined by HPLC, according to a previously reported method (Deng et al., 2010 b). Other significant secondary metabolites, such as scopoletin, rutin, and quercetin, were also determined by HPLC (Deng et al., 2010 a).
HPLC grade acetonitrile (MeCN), methanol (MeOH), and water (H2O) were obtained from Sigma-Aldrich (St. Louis, Mo., USA). Analytical grade formic acid was purchased from Spectrum Chemical Mfg. Corp. (New Brunswick, N.J., USA). […]

Data set [4] deals with E. coli PQ37. Type of data set: cell-based. The settings on record: 250 ug mL^-1 iridoid plus 1.25 ug mL^-1 4NQO; blank = 1. As for the experimental part:
The SOS-chromotest in E. coli PQ37 was used to determine the potential for iridoids in noni fruit from French Polynesia to prevent primary DNA damage. E. coli PQ37 was incubated at 37° C. in the presence of deacetylasperulosidic acid and asperulosidic acid at a concentration of 250 ug mL^−1 in a 96-well plate. Replicate samples were evaluated. […] Following incubation with the samples, 5-bromo-4-chloro-3-indolyl-β-D-galactopyranoside was added to the wells to detect β-galactosidase enzyme activity, which is induced during SOS repair of damaged DNA. The samples were again incubated for 90 minutes and the absorbances of the samples, blank and positive control were measured at 620 nm with a microplate reader. The β-galactosidase enzyme activity induction factor of each material was calculated by dividing the absorbance of the sample at 620 nm by that of the blank, while also correcting for cell viability.

Data set [5] is described as follows: Thermal stability of DAA under pasteurization conditions (HPLC). It is filed as physicochemical. The settings on record: 90° C. at pH 3.3 for one minute. As for the experimental part: as §1
Noni fruit juice is usually subjected to heat pasteurization during commercial processing. Pasteurization is usually employed in noni industry, i.e., heating up to 87.7° C. for several seconds. In this study, the stability of DAA was conducted. DAA was exposed to 90° C. at pH 3.3 for one minute to determine its thermal stability at acidic conditions.

Setting [6] is: 7.81 μg mL^−1, E. coli PQ37, 2 hours.
The mark [7] stands for this setting: 15.6 μg mL^−1, E. coli PQ37, 2 hours.
The mark [8] stands for this setting: 31.2 μg mL^−1, E. coli PQ37, 2 hours.
The mark [9] stands for this setting: 62.5 μg mL^−1, E. coli PQ37, 2 hours.
Setting [10] is: 125 μg mL^−1, E. coli PQ37, 2 hours.
Where [11] appears, read: 250 μg mL^−1, E. coli PQ37, 2 hours.
The mark [12] stands for this setting: 500 μg mL^−1, E. coli PQ37, 2 hours.
Where [13] appears, read: 1000 μg mL^−1, E. coli PQ37, 2 hours.

For `CC(=O)OCC1=C[C@H](O)[C@@H]2C(C(=O)O)=CO[C@@H](O[C@@H]3O[C@H](CO)[C@@H](O)[C@H](O)[C@H]3O)[C@H]12` [AA, asperulosidic acid], the reduction in genotoxicity with E. coli PQ37 [1] was 99.22%. For the same compound, the “induction factor of 4NQO plus iridoid compared with vehicle blank” value in the data set with E. coli PQ37 [1] is recorded as “no statistical difference from that of the vehicle blank”. In the data set on mammalian cells, the “genotoxicity in mammalian cells” value is listed as “non-genotoxic”. The Induction factor was 1.01 ± 0.05 with E. coli PQ37 [2] (setting [6]); 1.04 ± 0.11 in the data set with E. coli PQ37 [2] (setting [7]); 0.99 ± 0.06 in the data set on E. coli PQ37 [2] (setting [8]); 1.04 ± 0.13 in the data set with E. coli PQ37 [2] (setting [9]); 1.02 ± 0.08 in the data set with E. coli PQ37 [2] (setting [10]); 1.11 ± 0.16 with E. coli PQ37 [2] (setting [11]). The values for the Induction factor with E. coli PQ37 [2] (setting [12]) and in the data set on E. coli PQ37 [2] (setting [13]) were 1.07 ± 0.04 and 1.09 ± 0.03, respectively. The compound further returned a mean induction factor with E. coli PQ37 [2] of 1.09. Also, the “induction of SOS repair” value in the data set with E. coli PQ37 [2] is given as “did not induce any SOS repair at a frequency significantly above that of the blank”. Moreover, the “Amount detected, Inter-day” value in data set [3] was found to be 0.281 mg/mL. For the same compound, the “Amount detected, Day 1” value in data set [3] was 0.276 mg/mL. In addition, the “Amount detected, Day 2” value in data set [3] was 0.281 mg/mL. Besides, the “Amount detected, Day 3” value in data set [3] came out at 0.287 mg/mL.
On to `O=C(O)C1=CO[C@@H](O[C@@H]2O[C@H](CO)[C@@H](O)[C@H](O)[C@H]2O)[C@@H]2C(CO)=C[C@H](O)[C@H]12` [DAA, deacetylasperulosidic acid], for which the reduction in genotoxicity with E. coli PQ37 [1] was determined as 98.96%. For the same compound, in the data set with E. coli PQ37 [1], the “induction factor of 4NQO plus iridoid compared with vehicle blank” value is listed as “no statistical difference from that of the vehicle blank”. In addition, the “β-galactosidase enzyme activity induction factor of iridoid plus 4NQO (mean±standard deviation)” value in the data set with E. coli PQ37 [4] is given as 0.98±0.02. The “genotoxicity in mammalian cells” value with mammalian cells is “non-genotoxic”. Further, in data set [5], the “thermal stability (DAA content before and after heating)” value is “no difference in the DAA contents before and after heating”. Besides, the Induction factor turned out to be 0.93 ± 0.13 in the data set on E. coli PQ37 [2] (setting [6]); 1.03 ± 0.16 with E. coli PQ37 [2] (setting [7]); 1.04 ± 0.08 with E. coli PQ37 [2] (setting [8]); 1.05 ± 0.07 with E. coli PQ37 [2] (setting [9]); 1.00 ± 0.08 in the data set on E. coli PQ37 [2] (setting [10]); 1.06 ± 0.06 in the data set with E. coli PQ37 [2] (setting [11]). For the same compound, the Induction factor worked out at 1.03 ± 0.02 in the data set on E. coli PQ37 [2] (setting [12]) and 1.07 ± 0.14 with E. coli PQ37 [2] (setting [13]). The mean induction factor in the data set on E. coli PQ37 [2] is recorded as 1.07. Further, in the data set on E. coli PQ37 [2], the “induction of SOS repair” value is recorded as “did not induce any SOS repair at a frequency significantly above that of the blank”. Moreover, the “Amount detected, Inter-day” value in data set [3] is 1.297 mg/mL. In addition, the “Amount detected, Day 1” value in data set [3] is 1.308 mg/mL. The “Amount detected, Day 2” value in data set [3] was 1.291 mg/mL. In addition, the “Amount detected, Day 3” value in data set [3] came out at 1.291 mg/mL.
